Reference: US20240408169A1 (priority 2023, published 2024)
pIC50: −log10 of the molar value. *1 amine or outer side, *2 acyl side, *3 side chain or, on linkers, in order; H or OH if unused. Where a SMILES comes first, the peptide text is derived from it. Bridges are numbered along the chain shown (N, C = ends). [ ]: non-standard residue; d: D form. The star is where a group is joined. X10 = CC(C)C(=O)N1[C@H]2COC[C@@H]1C=C(c1ccc(Cl)cc1C[C@@H](C(=O)[*:2])N(C)[*:1])C2; X110 = CC(C)C(=O)N1[C@H]2CC[C@@H]1C=C(c1ccc(Cl)cc1C[C@@H](C(=O)[*:2])N(C)[*:1])C2; X7 = CC(C)C(=O)N1[C@H]2CC[C@@H]1C=C(c1ccc(F)cc1C[C@@H](C(=O)[*:2])N(C)[*:1])C2; NMePhe(2-(4-MorPh),5-Cl) = CN[C@@H](Cc1cc(Cl)ccc1-c1ccc(N2CCOCC2)cc1)C(=O)O; X50 = CN([C@@H](Cc1cc(Cl)ccc1-c1ccc(N2CCN(C3COC3)CC2)cc1)C(=O)[*:2])[*:1]; X43 = CC(C)N1CCN(c2ccc(-c3ccc(Cl)cc3C[C@@H](C(=O)[*:2])N(C)[*:1])cc2)CC1; X107 = CN([C@@H](Cc1cc(Cl)ccc1-c1ccc(-c2cnn(C)c2)cc1)C(=O)[*:2])[*:1]; X114 = CN([C@@H](Cc1cc(Cl)ccc1-c1ccc(OCCN2CCOCC2)cc1)C(=O)[*:2])[*:1]; X11 = CN1CCN(c2ccc(-c3ccc(Cl)cc3C[C@@H](C(=O)[*:2])N(C)[*:1])cc2)CC1; X71 = CN([C@@H](Cc1cc(Cl)ccc1-c1ccc(N2CCOCC2)c(F)c1)C(=O)[*:2])[*:1]; X115 = CN([C@@H](Cc1cc(Cl)ccc1-c1ccc(N2CCNCC2)cc1)C(=O)[*:2])[*:1]; X93 = CN([C@@H](Cc1cc(Cl)ccc1-c1ccc(OC2CCOCC2)cc1)C(=O)[*:2])[*:1]; X87 = CN([C@@H](Cc1cc(F)ccc1-c1ccc(N2CCOCC2)cc1)C(=O)[*:2])[*:1]; X60 = CN([C@@H](Cc1cc(Cl)ccc1-c1cnn2ccncc12)C(=O)[*:2])[*:1]; NMehhhLys(Me) = CN([C@@H](CCCCCCCN(C)[*:3])C(=O)[*:2])[*:1]; NMe(hhhLys) = CN([C@@H](CCCCCCCN[*:3])C(=O)[*:2])[*:1]; X17 = CN([C@@H](Cc1cc(Cl)cnc1N1CCOCC1)C(=O)[*:2])[*:1]; X33 = CN([C@@H](Cc1cc(Cl)cc2c1OCCO2)C(=O)[*:2])[*:1]; cBuCO(3,3-F2-1-CF3) = O=C(C1(C(F)(F)F)CC(F)(F)C1)*; Pro(trans-4-F) = O=C(O)[C@@H]1C[C@@H](F)CN1; Pivaloyl(3,3,3-F3) = CC(C)(C(=O)*)C(F)(F)F; Gly(cPr) = N[C@H](C(=O)O)C1CC1

Experiments:
CyclinA2/CDK2 = biological target: T1, CyclinA2/CDK2 (Homo sapiens, UniProt P20248); experiment: Fluorescence Polarization (FP) competitive binding assay, Cyclin A2/Cdk2; details: 8 nM Cyclin A2/Cdk2, 2 nM FAM probe; average of 2-3 independent experiments; read-out: Cyclin A FP IC50;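 note: plates equilibrated two hours at room temperature before polarization reading, IC50 fitted from eight-concentration compound titration curves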
T1 construct: purchased CRELUX Protein Services

CyclinB1/CDK1 = biological target: T2, CyclinB1/CDK1 (Homo sapiens, UniProt P14635); experiment: Fluorescence Polarization (FP) competitive binding assay, Cyclin B1/Cdk1; details: 10 nM Cyclin B1/Cdk1, 2 nM FAM probe; average of 2-3 independent experiments; read-out: Cyclin B FP IC50;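 note: fluorescence polarization read after equilibration at room temperature, with IC50 taken from serially diluted dose-response curves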
T2 construct: purchased Eurofins, discovery 14-450

CyclinE1/CDK2 = biological target: T3, CyclinE1/CDK2 (Homo sapiens, UniProt P24864); experiment: Fluorescence Polarization (FP) competitive binding assay, Cyclin E1/Cdk2; details: 10 nM Cyclin E1/Cdk2, 2 nM FAM probe; average of 2-3 independent experiments; read-out: Cyclin E FP IC50;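 note: readings taken after two-hour equilibration at room temperature in HEPES buffer with NaCl, DTT, NP-40 and BSA, IC50 fitted from eight-concentration serial dilution series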
T3 construct: purchased Eurofins, discovery 14-475

WI-38 cells = experiment: MTT proliferation assay, WI-38; assay type: cell-based; details: 3 days compound exposure, 1:3 serial dilution starting at 10 μM;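 note: Eight- or ten-point dilution series, with exposure length chosen to span about three to four cell doublings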
NCI-H1048 cells = experiment: MTT proliferation assay, NCI-H1048; assay type: cell-based; details: 5 days compound exposure, 1:3 serial dilution starting at 10 μM;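 note: Dose-response in 96-well plates over 8 or 10 concentration points, with exposure spanning 3-4 cell doublings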
OVCAR3 cells = experiment: MTT proliferation assay, OVCAR3; assay type: cell-based; details: 5 days compound exposure, 1:3 serial dilution starting at 10 μM;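 note: compound given as an 8- or 10-point series, one day after plating, with exposure covering roughly 3-4 cell doublings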

| SMILES | pIC50 (CyclinA2/CDK2) | pIC50 (CyclinB1/CDK1) | pIC50 (CyclinE1/CDK2) | GI50 (WI-38 cells) [µM] | GI50 (NCI-H1048 cells) [nM] | GI50 (OVCAR3 cells) [nM] |
| --- | --- | --- | --- | --- | --- | --- |
| CC(C)C[C@@H]1NC(=O)[C@@H](N(C)C(=O)[C@@H](NC(=O)[C@@H]2C[C@@H](F)CN2C(=O)C2(C(F)(F)F)CC(F)(F)C2)C2CC2)CCCCCCCN(C)C(=O)[C@H](Cc2cc(Cl)ccc2-c2cnn3ccncc23)N(C)C1=O [Example 305] ({cBuCO(3,3-F2-1-CF3)}-[Pro(trans-4-F)][Gly(cPr)][NMehhhLys(Me)]L[X60]; lactam 3-C) | 7.30 | 7.70 | 5.76 | 19.2 | 10 | 20 |
| CC(C)C[C@@H]1NC(=O)[C@@H](N(C)C(=O)[C@@H](NC(=O)[C@@H]2C[C@@H](F)CN2C(=O)C2(C(F)(F)F)CC(F)(F)C2)C2CC2)CCCCCCCNC(=O)[C@H](Cc2cc(Cl)ccc2C2=C[C@H]3CC[C@@H](C2)N3C(=O)C(C)C)N(C)C1=O [Example 313] ({cBuCO(3,3-F2-1-CF3)}-[Pro(trans-4-F)][Gly(cPr)][NMe(hhhLys)]L[X110]; lactam 3-C) | 7.70 | 7.70 | 6.19 | 36.6 | 10 | 10 |
| CC(C)C[C@@H]1NC(=O)[C@@H](N(C)C(=O)[C@@H](NC(=O)[C@@H]2C[C@@H](F)CN2C(=O)C2(C(F)(F)F)CC(F)(F)C2)C2CC2)CCCCCCCN(C)C(=O)[C@H](Cc2cc(F)ccc2C2=C[C@H]3CC[C@@H](C2)N3C(=O)C(C)C)N(C)C1=O [Example 318] ({cBuCO(3,3-F2-1-CF3)}-[Pro(trans-4-F)][Gly(cPr)][NMehhhLys(Me)]L[X7]; lactam 3-C) | 7.70 | 7.70 | 6.55 | 9.92 | 10 | 10 |
| CC(C)C[C@@H]1NC(=O)[C@@H](N(C)C(=O)[C@@H](NC(=O)[C@@H]2C[C@@H](F)CN2C(=O)C2(C(F)(F)F)CC(F)(F)C2)C2CC2)CCCCCCCN(C)C(=O)[C@H](Cc2cc(Cl)cnc2N2CCOCC2)N(C)C1=O [Example 320] ({cBuCO(3,3-F2-1-CF3)}-[Pro(trans-4-F)][Gly(cPr)][NMehhhLys(Me)]L[X17]; lactam 3-C) | 7.52 | 7.70 | 5.84 | 15.5 | 10 | 20 |
| CC(C)C[C@@H]1NC(=O)[C@@H](N(C)C(=O)[C@@H](NC(=O)[C@@H]2C[C@@H](F)CN2C(=O)C2(C(F)(F)F)CC(F)(F)C2)C2CC2)CCCCCCCN(C)C(=O)[C@H](Cc2cc(Cl)cc3c2OCCO3)N(C)C1=O [Example 321] ({cBuCO(3,3-F2-1-CF3)}-[Pro(trans-4-F)][Gly(cPr)][NMehhhLys(Me)]L[X33]; lactam 3-C) | 7.70 | 7.70 | 7.00 | 89.8 | 10 | 10 |
| CC(C)C[C@@H]1NC(=O)[C@@H](N(C)C(=O)[C@@H](NC(=O)[C@@H]2C[C@@H](F)CN2C(=O)C2(C(F)(F)F)CC(F)(F)C2)C2CC2)CCCCCCCNC(=O)[C@H](Cc2cc(Cl)ccc2C2=C[C@H]3COC[C@@H](C2)N3C(=O)C(C)C)N(C)C1=O [Example 327] ({cBuCO(3,3-F2-1-CF3)}-[Pro(trans-4-F)][Gly(cPr)][NMe(hhhLys)]L[X10]; lactam 3-C) | 7.70 | 7.70 | 6.40 | 83.9 | 10 | 10 |
| CC(C)C[C@@H]1NC(=O)[C@@H](N(C)C(=O)[C@@H](NC(=O)[C@@H]2C[C@@H](F)CN2C(=O)C2(C(F)(F)F)CC(F)(F)C2)C2CC2)CCCCCCCNC(=O)[C@H](Cc2cc(Cl)cc3c2OCCO3)N(C)C1=O [Example 330] ({cBuCO(3,3-F2-1-CF3)}-[Pro(trans-4-F)][Gly(cPr)][NMe(hhhLys)]L[X33]; lactam 3-C) | 7.52 | 7.70 | 7.00 | 18.5 | 10 | 10 |
| CC(C)C[C@@H]1NC(=O)[C@@H](N(C)C(=O)[C@@H](NC(=O)[C@@H]2C[C@@H](F)CN2C(=O)C(C)(C)C(F)(F)F)C2CC2)CCCCCCCN(C)C(=O)[C@H](Cc2cc(Cl)ccc2-c2ccc(N3CCOCC3)cc2)N(C)C1=O [Example 335] ({Pivaloyl(3,3,3-F3)}-[Pro(trans-4-F)][Gly(cPr)][NMehhhLys(Me)]L[NMePhe(2-(4-MorPh),5-Cl)]; lactam 3-C) | 7.70 | 7.70 | 6.80 | 4.75 | 10 | 10 |
| CC(C)C[C@@H]1NC(=O)[C@@H](N(C)C(=O)[C@@H](NC(=O)[C@@H]2C[C@@H](F)CN2C(=O)C2(C(F)(F)F)CC(F)(F)C2)C2CC2)CCCCCCCN(C)C(=O)[C@H](Cc2cc(Cl)ccc2-c2ccc(N3CCN(C)CC3)cc2)N(C)C1=O [Example 336] ({cBuCO(3,3-F2-1-CF3)}-[Pro(trans-4-F)][Gly(cPr)][NMehhhLys(Me)]L[X11]; lactam 3-C) | 7.70 | 7.70 | 6.38 | 2.48 | 10 | 10 |
| CC(C)C[C@@H]1NC(=O)[C@@H](N(C)C(=O)[C@@H](NC(=O)[C@@H]2C[C@@H](F)CN2C(=O)C2(C(F)(F)F)CC(F)(F)C2)C2CC2)CCCCCCCN(C)C(=O)[C@H](Cc2cc(F)ccc2-c2ccc(N3CCOCC3)cc2)N(C)C1=O [Example 337] ({cBuCO(3,3-F2-1-CF3)}-[Pro(trans-4-F)][Gly(cPr)][NMehhhLys(Me)]L[X87]; lactam 3-C) | 7.70 | 7.70 | 6.72 | 18.7 | 10 | 10 |
| CC(C)C[C@@H]1NC(=O)[C@@H](N(C)C(=O)[C@@H](NC(=O)[C@@H]2C[C@@H](F)CN2C(=O)C2(C(F)(F)F)CC(F)(F)C2)C2CC2)CCCCCCCN(C)C(=O)[C@H](Cc2cc(Cl)ccc2-c2ccc(-c3cnn(C)c3)cc2)N(C)C1=O [Example 338] ({cBuCO(3,3-F2-1-CF3)}-[Pro(trans-4-F)][Gly(cPr)][NMehhhLys(Me)]L[X107]; lactam 3-C) | 7.52 | 7.70 | 5.77 | 18.9 | 20 | 20 |
| CC(C)C[C@@H]1NC(=O)[C@@H](N(C)C(=O)[C@@H](NC(=O)[C@@H]2C[C@@H](F)CN2C(=O)C2(C(F)(F)F)CC(F)(F)C2)C2CC2)CCCCCCCN(C)C(=O)[C@H](Cc2cc(Cl)ccc2-c2ccc(OCCN3CCOCC3)cc2)N(C)C1=O [Example 339] ({cBuCO(3,3-F2-1-CF3)}-[Pro(trans-4-F)][Gly(cPr)][NMehhhLys(Me)]L[X114]; lactam 3-C) | 7.70 | 7.70 | 6.40 | 5.62 | 10 | 10 |
| CC(C)C[C@@H]1NC(=O)[C@@H](N(C)C(=O)[C@@H](NC(=O)[C@@H]2C[C@@H](F)CN2C(=O)C2(C(F)(F)F)CC(F)(F)C2)C2CC2)CCCCCCCN(C)C(=O)[C@H](Cc2cc(Cl)ccc2-c2ccc(OC3CCOCC3)cc2)N(C)C1=O [Example 340] ({cBuCO(3,3-F2-1-CF3)}-[Pro(trans-4-F)][Gly(cPr)][NMehhhLys(Me)]L[X93]; lactam 3-C) | 7.70 | 7.70 | 5.78 | 17.3 | 20 | 20 |
| CC(C)C[C@@H]1NC(=O)[C@@H](N(C)C(=O)[C@@H](NC(=O)[C@@H]2C[C@@H](F)CN2C(=O)C2(C(F)(F)F)CC(F)(F)C2)C2CC2)CCCCCCCN(C)C(=O)[C@H](Cc2cc(Cl)ccc2-c2ccc(N3CCNCC3)cc2)N(C)C1=O [Example 341] ({cBuCO(3,3-F2-1-CF3)}-[Pro(trans-4-F)][Gly(cPr)][NMehhhLys(Me)]L[X115]; lactam 3-C) | 7.70 | 7.70 | 6.29 | 2.44 | 10 | 10 |
| CC(C)C[C@@H]1NC(=O)[C@@H](N(C)C(=O)[C@@H](NC(=O)[C@@H]2C[C@@H](F)CN2C(=O)C2(C(F)(F)F)CC(F)(F)C2)C2CC2)CCCCCCCN(C)C(=O)[C@H](Cc2cc(Cl)ccc2-c2ccc(N3CCN(C4COC4)CC3)cc2)N(C)C1=O [Example 346] ({cBuCO(3,3-F2-1-CF3)}-[Pro(trans-4-F)][Gly(cPr)][NMehhhLys(Me)]L[X50]; lactam 3-C) | 7.70 | 7.70 | 6.44 | 3.68 | 10 | 10 |
| CC(C)C[C@@H]1NC(=O)[C@@H](N(C)C(=O)[C@@H](NC(=O)[C@@H]2C[C@@H](F)CN2C(=O)C2(C(F)(F)F)CC(F)(F)C2)C2CC2)CCCCCCCN(C)C(=O)[C@H](Cc2cc(Cl)ccc2-c2ccc(N3CCN(C(C)C)CC3)cc2)N(C)C1=O [Example 347] ({cBuCO(3,3-F2-1-CF3)}-[Pro(trans-4-F)][Gly(cPr)][NMehhhLys(Me)]L[X43]; lactam 3-C) | 7.70 | 7.70 | 6.19 | 1.81 | 10 | 10 |
| CC(C)C[C@@H]1NC(=O)[C@@H](N(C)C(=O)[C@@H](NC(=O)[C@@H]2C[C@@H](F)CN2C(=O)C2(C(F)(F)F)CC(F)(F)C2)C2CC2)CCCCCCCN(C)C(=O)[C@H](Cc2cc(Cl)ccc2-c2ccc(N3CCOCC3)c(F)c2)N(C)C1=O [Example 348] ({cBuCO(3,3-F2-1-CF3)}-[Pro(trans-4-F)][Gly(cPr)][NMehhhLys(Me)]L[X71]; lactam 3-C) | 7.70 | 7.70 | 6.06 | 18 | 10 | 10 |
